Counter-ions that a name gives are not always drawn.
Key:
rat hepatocytes [1] = test: ATP content of rat hepatocyte suspensions; type: cell-based; conditions: 50 μM
Excerpt: It is well known that the succinate molecule is utilized by the cell to produce ATP energy. In the tricarboxylic acid cycle, succinate is oxidized by succinate dehydrogenase to produce ATP. Oxidation occurs in the mitochondria and the mitochondria can utilize both succinate formed in the mitochondria or succinate transported to the mitochondria. Increasing ATP production may enhance cellular repair processes as well as normal metabolic processes. For example, the cell's ability to remove free intracellular Ca^2+ during a toxic insult is related to ATP production. Succinate administration stimulates gluconeogenesis to form glucose 6-phosphate which is used for producing energy anaerobically (ATP formation through glycolysis) and for producing reducing equivalents (NADPH formation through the hexose monophosphate shunt needed for lipid and nucleotide biosynthesis and other biosynthetic reductions and enzymatic reactions, e.g., glutathione reductase). An in vitro experiment was conducted to determine the relationship between the release of succinate from alpha-TS and the cellular ATP level. The experiment was performed by incubating a tocopherol analog in a rat hepatocyte suspension and measuring the ATP level at the beginning and end of the test.
(§1) Rat hepatocyte suspensions were subjected to 50 mM EMS and the percentage of cell death, the percentage of intracellular K^+ (a metabolic parameter as discussed above), the depletion of ATP and the effect on lipid peroxidation were monitored.

rat hepatocytes [2] = test: Cellular alpha-tocopherol and tocopherol ester content of rat hepatocytes; conditions: EMS
Protocol: (§2) At each time-point, rapid separation of viable from non-viable hepatocytes and medium was accomplished by the dibutyl phthalate centrifugation method. Cell viability was monitored hourly by measuring LDH leakage with a Cobas Analyzer and intracellular [K^+ ]with a flame photometer. LDH was routinely measured in the medium while intracellular K^+ was measured in the 10% perchloric acid lysate of viable cells. Lipid peroxidation was determined by measuring TBA reactants in the medium. […] The samples were diluted with 0.3 ml 1% ascorbate in 0.1 M SDS, 0.4 ml ethanol, sonicated and extracted once with 0.8 ml hexane. Next, the hexane extract was evaporated to dryness with N2, the residue dissolved in 2.5% ascorbate in methanol (1 ml) and analyzed (100 μl) by high-performance liquid chromatograph (HPLC). […] The mobile phase, 95% MeOH was run isocratically and the HPLC retention times for delta and alpha-tocopherol were approximately eleven and sixteen minutes, respectively. […] Following the addition of 0.2 ml 4 M HC1, the neutralized KOH-MeOH extracted with 0.8 ml hexane. […] A standard curve for each tocopherol congener was run with every assay. […] Only viable cells were monitored in the laboratory procedures.
The hepatocytes were subsequently exposed to 50mM EMS for three hours.

cultured rat hepatocytes = test: EMS-induced toxicity and lipid peroxidation in primary cultures of rat hepatocytes; type: cell-based; conditions: for Cell Death / Lipid Peroxidation: 50 mM EMS, 6 hrs
Protocol: To confirm the cytoprotective properties of alpha-TP under physiological conditions in vitro tests using primary cultures of adult rat hepatocytes were conducted (another in vitro model system). Unlike the hepatocyte suspensions used for the in vitro modeling discussed above, cultured hepatocytes retain their in vivo cuboidal shape as a result of attachment to a collagen matrix, and their lifespan in vitro is 5 to 7 days, instead of 8-12 hours (as with suspensions).

male Sprague-Dawley rats = test: CCl4 induced lethality in rats; type: in vivo, rat; conditions: 100 mg/kg, single dose 24 h prior, CCl4 […]
Protocol: The in vivo effect of alpha-TS was tested by administering a lethal oral dose of carbon tetrachloride (CC14) to male Sprague-Dawley rats.
In the experiment described in Table 3, a single dose of alpha-TS dissolved in peanut oil:ethanol (3:2) was given to male Sprague-Dawley rats. The dose was given 24 hours prior to an orally administered CCl4 challenge dissolved in peanut oil. Two to nine animals were tested per treatment. The control group comprised rats pretreated with the vehicle only. Survival was monitored for at least 7 days after the toxic insult.
In vivo experiments were performed to determine if the time the ionizable tocopherol analog (alpha-TS) is administered affects the cytoprotective functions. Male Sprague-Dawley rats were given a 100 mg/kg intraperitoneal dose of a tocopherol or succinate analog and were given a lethal dose of CCl4 (2.9g/kg by oral gavage). Table 7 contrasts the times of administration of the tocopherol or succinate analog and the times of administration of the lethal dose of CCl4 with the survival of the rats in the study (3to 6 rats per protective treatment).
Several tocopherol and succinate analogs were tested for CCl4 induced lethality. A single dose of the tocopherol or succinate analog was administered twenty four hours prior to orally administering 2.9 g CCl4 /kg body weight. Three to six animals were analyzed per treatment. The rats were monitored for seven days. […]

rat hepatocytes [3] = test: EMS-induced cytotoxicity (LDH leakage/cell death) in rat hepatocyte suspensions
Protocol: To determine if alpha-TS is a cytoprotective agent under physiological conditions, liver cells were incubated with Waymouth's medium containing approximately 1 mM extracellular Ca^2+ in the presence and absence of alpha-TS.
as §2
To determine the relative cytoprotective potency of various tocopherol derivatives, the effect of varying doses of a tocopherol analog on the protection against EMS-induced toxicity was examined in vitro on rat hepatocyte suspensions. Specifically, the following ionizable tocopherol congeners were tested: alpha-TS, alpha tocopheryl glutarate (alpha-TG), and alpha tocopheryl phosphate (alpha-TP). […] 0.1 nmoles is the lower detection limit.
In vitro experiments were conducted with a variety of different tocopherol and succinate analogs to determine which were protective against EMS induced toxicity. After five hours of incubation with 50 mM EMS and 25μM of a tocopherol or succinate analog, cytoprotection was determined by comparing the percentage of LDH leakage from control hepatocytes (vehicle only, assumed 100% protection) with the EMS only treated cells (assumed 0% protection).
An in vitro experiment with rat hepatocyte suspensions was performed to determine the effect of esterase inhibitors on alpha-TS.
as §1

liver [4] = test: CCl4 induced hepatotoxicity in rats (serum AST/ALT); type: in vivo, rat
Method in brief: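 Male Sprague-Dawley rats received test compounds i.p. at 100 mg/kg 20–24 h before oral CCl4 (2.9 g/kg or 1 g/kg). Serum AST and ALT were measured 48 h after CCl4 challenge.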

liver [5] = test: Partial liver ischemia/reperfusion-induced injury in rats; type: in vivo, rat; conditions: dihydrocholesterol sulfate vs dihydrocholesterol plus sodium sulfate
Protocol: 20 hours prior to global occlusion, one group of 10 rats was provided with 64 mg cholesterol/kg body weight and 100 mg tris succinate/kg body weight by i.p. injection, and another group of 10 rats was provided with 100 mg cholesteryl succinate/kg body weight. A control group of rats was only partially occluded for the one hour period. Ninety percent of the rats pretreated with cholesteryl succinate tris salt survived while only 10% of those pretreated with the combination of cholesterol and tris succinate survived. Table 22 of a partial ischemia study where male Sprague-Dawley rats were subjected to occlusion of the blood supply to the left lateral and median lobes of the liver for 60 minutes followed by reperfusion for 24 hours. During this time, the normal blood supply to the other lobes of the liver was maintained. […] Serum was obtained for AST and ALT measurements.
^a Partial liver ischemia was induced in male Sprague Dawley rats

[6] = test system: L1210 murine leukemia cells; test: Inhibition of L1210 leukemia cell growth in vitro; type: cell-based, mouse
Protocol: Similar in vitro experiments were conducted with cholesteryl succinate tris salt and alpha-TS tris salt.

liver [7] = test: Acetaminophen-induced hepatotoxicity in rats (AST/ALT); type: in vivo, rat
Protocol: In vivo experiments were performed to determine if alpha-TS administration protects the liver from the hepatotoxic effects of acetaminophen. Acetaminophen is a commonly used analgesic that is metabolized to a reactive intermediate. […] The other group of male Sprague-Dawley rats received only the acetaminophen challenge. Forty eight hours after the challenge the rats were sacrificed and the levels of aspartate aminotransferase (AST) and alanine aminotransferase (ALT) were measured.
FIGS. 10 and 11 show the results of in vivo experiments where male Sprague-Dawley rats were given an oral dose of 15 or 30 mg THA/kg body weight, respectively. In the experiments, one group of rats was provided with an i.p. dose of 100 mg cholesteryl succinate tris salt/kg body weight 20 hours prior to the THA challenge, another group of rats only received the THA challenge, and the last group of rats acted as a control and were not challenged. The serum AST levels were determined with respect to time after the THA challenge.

rat hepatocytes [8] = test: Intracellular K+ of rat hepatocytes exposed to EMS; type: cell-based; conditions: 50 mM EMS, 5 Hrs; concentrations as cell death (Table 15)
Excerpt: Medzhradsky, Biochem. Med. 13:164 (1975), has noted that the cell's ability to maintain its intracellular concentration of potassium (K^+) is an excellent indicator of the metabolic integrity of the cell. A concentration gradient exists for K^+ with greater concentrations found intracellularly. To maintain this gradient, the cell is dependent on the action of the Na^+ -K^+ ATPase pump and an adequate supply of ATP. As cellular ATP levels decline, the ATPase pump is unable to maintain the gradient resulting in the loss of intracellular K^+ by equilibration with the extracellular space. Because the maintenance of cellular metabolic processes is essential to the continual repair and survival of cells, organ systems, and organisms, the effect of alpha-TS on the metabolic integrity of rat liver cells during a toxic insult was investigated by measuring intracellular K^+ levels. […] At each time-point, rapid separation of viable from non-viable hepatocytes and medium was accomplished by the dibutyl phthalate centrifugation method. Cell viability was monitored hourly by measuring LDH leakage with a Cobas Analyzer and intracellular [K^+ ]with a flame photometer. […] Lipid peroxidation was determined by measuring TBA reactants in the medium. […] Alltech, Avondale, Pa.). […] Following the addition of 0.2 ml 4 M HC1, the neutralized KOH-MeOH extracted with 0.8 ml hexane. […] A standard curve for each tocopherol congener was run with every assay. […] Only viable cells were monitored in the laboratory procedures.

[9] = 100 mg/kg ip (dihydrocholesterol 80 + sodium sulfate 30 mg/kg), 48 h after 1 g/kg CCl4 (Table 35)
[10] = 100 mg/kg ip, PEG 400 vehicle, 48 h after 1 g/kg CCl4 (Table 34)
[11] = 100 mg/kg ip 20 h prior, 48 h after 1 g/kg CCl4 (Table 20)
[12] = 100 mg/kg ip, 48 h after 1 g/kg CCl4 (Table 33)
[13] = 100 mg/kg ip, no CCl4 (Table 20)
[14] = 100 mg/kg ip, no CCl4 (Table 33)
[15] = 100 mg/kg ip 20 hrs prior, 48 h after 2 g/kg AP (Table 23)

## Cc1c(C)c2c(c(C)c1OP(=O)(O)O)CCC(C)(CCCC(C)CCCC(C)CCCC(C)C)O2 (racemic) [alpha-TP, dl-alpha-tocopheryl phosphate]
Rat hepatocytes [1]
  Rate of ATP Depletion: 2.0 ± 0.2 nmoles/10^6 cell/hr
Rat hepatocytes [1]; 0 Hr
  Cellular ATP: 19.4 ± 1.6 nmoles/10^6 cells
Rat hepatocytes [1]; 6 Hr
  Cellular ATP: 7.3 ± 0.2 nmoles/10^6 cells
Rat hepatocytes [2]
  cellular accumulation of alpha-TP: 2.68 nmols/10^6 cells
Cultured rat hepatocytes; 25 μM
  Cell Death: 16 ± 3%
  Lipid Peroxidation: 2.5 ± 0.9 μmoles MDA/10^6 cells
Cultured rat hepatocytes; 100 μM
  Cell Death: 15 ± 3%
  Lipid Peroxidation: 2.3 ± 0.1 μmoles MDA/10^6 cells
Cultured rat hepatocytes; 250 μM
  Cell Death: 20 ± 3%
  Lipid Peroxidation: 1.7 ± 0.1 μmoles MDA/10^6 cells
Cultured rat hepatocytes; 3.5 mM Ca2+
  cytoprotection at 3.5 mM extracellular Ca2+: eliminated
Male Sprague-Dawley rats
  Days Survived After CCl4 Treatment: 3 days
Rat hepatocytes [3]; Rattus norvegicus, Hepatocyte, read-out: medium concentration with significant protection against EMS toxicity
  minimal effective concentration: ≥ 50 µM

## CC(C)CCC[C@@H](C)[C@H]1CC[C@H]2[C@@H]3CC[C@H]4C[C@@H](OS(=O)(=O)O)CC[C@]4(C)[C@H]3CC[C@]12C [Dihydrocholesterol sulfate, sodium salt]
Liver [4]; [9]
  ALT: 0.02 ± 0.01 10^3 units/L
  AST: 0.17 ± 0.04 10^3 units/L
Liver [4]; [10]
  ALT: 0.03 ± 0.03 10^3 units/L
  AST: 0.15 ± 0.07 10^3 units/L
Liver [4]; Rattus norvegicus, ip, 48 h, read-out: % Hepatoprotection
  inhibition in vivo at 100 mg/kg: 100%
Liver [4]; rats, serum enzyme levels
  protection against CCl4 hepatotoxicity (in words): complete protection against hepatotoxicity
Liver [5]
  ALT: 1305±568

## O=C(O)CCC(=O)O [Tris Succinate, reference compound]
[6]
  growth rate of L1210 cells (FIG. 7): no effect on the growth rate
Liver [4]; [11]
  ALT: 3.617 ± 0.858 10^3 units/L
  AST: 11.22 ± 3.15 10^3 units/L
Liver [4]; [12]
  ALT: 2.135 ± .881 10^3 units/L
  AST: 8.32 ± 2.65 10^3 units/L
Liver [4]; [13]
  ALT: 0.048 ± 0.005 10^3 units/L
  AST: 0.11 ± 0.02 10^3 units/L
Liver [4]; [14]
  ALT: 0.058 ± .001 10^3 units/L
  AST: 0.15 ± 5.02 10^3 units/L
Liver [7]; [15]
  Serum ALT Level: 623 ± 339 Units/L
  Serum AST Level: 2286 ± 1190 Units/L
Liver [7]; 100 mg/kg ip, no AP (Table 23)
  Serum ALT Level: 50 ± 7 Units/L
  Serum AST Level: 93 ± 34 Units/L

## COC(=O)CCC(=O)Oc1c(C)c(C)c2c(c1C)CCC(C)(CCCC(C)CCCC(C)CCCC(C)C)O2 (stereo not drawn) [methyl ester of alpha-TS, Alpha-Tocopherol Succinate Methyl Ester]
Male Sprague-Dawley rats
  Days Survived After CCl4 Treatment: > 7 days
Rat hepatocytes [3]; 50 mM EMS, 5 Hrs, alpha-TS 25, methyl ester 50, cholesteryl succinate 100, monomethyl/dimethyl succinate 250 μM
  Cell Death: 30 ± 1%
Rat hepatocytes [3]; Rattus norvegicus, Hepatocyte, 5 h, read-out: Percent Cytoprotection, 25 μM, 50 mM EMS, 5 h
  inhibition at 25 µM: 22 ± 15%
Rat hepatocytes [8]
  % Initial Intracellular [K+]: 67 ± 4 % Initial
